The results in this text go back to paper PMC4864966, “Two unexpected promiscuous activities of the iron–sulfur protein IspH in production of isoprene and isoamylene” (Microbial Cell Factories, 2016).

This experiment has as its system T1, IspH.
T1 construct: complete ORF in pET-28a(+) NcoI/XhoI, C-terminal His-tag, E. coli BL21(DE3) with isc operon, [4Fe-4S] cluster, Ni-NTA purified anaerobically
Description: headspace GC of isoamylene (2-methyl-2-butene and 3-methyl-1-butene) formation; Michaelis-Menten and Lineweaver-Burk. The class given is biochemical, Bacillus sp. N16-5. The settings on record: 1 mM NADPH, 20 µM Fd, 5 µM FNR, 2 mM DTT, 20 mM Tris-HCl pH 7.8, 150 mM NaCl, 37 °C, anaerobic; DMAPP 0.1 to 1 mM.

Turning to `CC(C)=CCOP(=O)(O)OP(=O)(O)O` [DMAPP], the Km (usually the substrate concentration at which the rate is half of its maximum) was ~275 µM.
